Here are results for four compounds from patent US20050124607A1, “5-Substituted quinazolinone compounds useful as alpha 1A/B adrenergic receptor antagonists” (priority 2003, published 2005).

Assay [1] deals with hypogastric nerve stimulation-induced increases in intraurethral pressure and phenylephrine-induced increases in diastolic blood pressure. Nature of the assay: In vivo intraurethral and blood pressure assay in anesthetized dog. To be noted: anesthetized male mongrel dog, i.v. bolus, increasing doses. The method, then:
The following describes an in vivo assay for measuring the relative effect of test compounds on hypogastric nerve stimulation-induced increases in intraurethral pressure and phenylephrine-induced increases in diastolic blood pressure in anesthetized dog.
Male Mongrel dogs (10 to 20 kg) were-fasted for 12 to 18 hours and anesthetized with phenobarbital sodium (36 mg/kg, i.v.). An endotracheal tube was inserted and thereafter the lungs were mechanically ventilated with room air. The right femoral vein was isolated and cannulated with two polyethylene cannulae, one for the administration of a continuous infusion of phenobarbital sodium (5 to 10 mg/kg/hr) and the other for bolus administration of test substances. The right femoral artery was isolated and cannulated to the abdominal aorta with a fluid filled polyethylene cannula connected to an external pressure transducer for monitoring diastolic aortic pressure (DAP). The bladder was exposed via a ventral midline abdominal incision and emptied of urine through a 22 gauge needle. The bladder was cannulated through a stab incision with a water filled balloon catheter connected to an external pressure transducer for monitoring prostatic intraurethral pressure (IUP). The right hypogastric nerve (HGN) was carefully isolated and attached to a Dastre's electrode for nerve stimulation. […]

The target of a further assay is T1, alpha1B adrenoceptor (Homo sapiens, UniProt P35368).
T1 construct: expressed in transfected cells; host or cells: CHO-K1
T1 sequence (P35368 1-520): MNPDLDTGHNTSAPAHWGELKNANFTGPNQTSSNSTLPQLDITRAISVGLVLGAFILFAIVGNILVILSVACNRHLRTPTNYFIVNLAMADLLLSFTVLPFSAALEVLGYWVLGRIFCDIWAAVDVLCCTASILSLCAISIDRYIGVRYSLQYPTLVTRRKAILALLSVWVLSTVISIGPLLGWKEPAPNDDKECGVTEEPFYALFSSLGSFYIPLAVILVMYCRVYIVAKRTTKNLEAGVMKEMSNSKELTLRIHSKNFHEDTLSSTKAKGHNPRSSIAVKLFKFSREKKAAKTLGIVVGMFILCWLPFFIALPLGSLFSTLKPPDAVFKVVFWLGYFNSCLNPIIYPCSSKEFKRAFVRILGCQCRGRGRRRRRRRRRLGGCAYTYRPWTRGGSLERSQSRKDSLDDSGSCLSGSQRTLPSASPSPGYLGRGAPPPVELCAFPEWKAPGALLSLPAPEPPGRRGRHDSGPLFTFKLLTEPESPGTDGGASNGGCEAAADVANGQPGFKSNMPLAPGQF
Nature of the assay: [3H]prazosin binding (alpha1-adrenoceptor) assay, alpha 1B. To be noted: transfected CHO-K1 cell membranes, read-out: pKi alpha 1B (converted). The method, then: (§1) Alpha1 A, alpha1B, and alpha1D adrenoceptor transfected CHO-K1 cells, prepared using the methods described by Chang et al., FEBS Lett. 1998, 422:279-283, were grown to confluence in T-162 tissue culture flasks in Ham's F-12 culture medium supplemented with 10% fetal bovine serum, geneticin (150 μg/mL) and streptomycin/penicillin (30 μg/mL/30 μg/mL) at 37° C. in 7% CO2. Cells were harvested by incubating with phosphate-buffered saline (PBS) containing 30 μM EDTA for 5-10 min at 37° C. Cells were pelleted by centrifuging at 500×g for 5 min, and the pelleted cells were homogenized (Polytron homogenizer) in 10 vols (w/v) of 50 mM Tris, 1 mM EDTA, (homogenisation buffer, pH 7.4 at 4° C.). The homogenate was centrifuged at 45,000×g for 20 min. The pellet was resuspended in the homogenizing buffer and rehomogenized. The resulting homogenate was centrifuged at 45,000×g for 20 min. The pellet was resuspended in 50 mM Tris buffer (pH 7.4 at 4° C.), aliquoted, frozen, and stored at −80° C. for further use.
(§2) The membranes were thawed at rt and diluted in assay buffer (50 mM Tris buffer at […]) at 37° C. and homogenized using the Polytron tissue disrupter. The membranes were incubated with the radioligand ([^3H]prazosin, NEN, 0.1-0.5 nM) and test compound at 37° C. for 30 min. The membranes were then filtered over polyethyleneimine-treated GF/B unifilter plates using a Packard Filtermate Harvester and washed with ice-cold 50 mM Tris-HCl, 1 mM EDTA buffer (3×3 sec. washes). Scintillation cocktail was added to the filter plates and bound radioligand determined by liquid scintillation spectrophotometry.
(§3) For each experiment, total binding (in the absence of any test or reference compounds) and non-specific binding (10 μM phentolamine) were determined. For each sample tested, the concentration producing 50% inhibition of binding (IC50) and Hill Slope (nH) was determined using iterative non-linear curve fitting techniques with Kaleidagraph (Synergy Software) or other appropriate software. If the radioligand KD was known, the inhibition dissociation constant (KI) of each ligand was determined according to the method of Cheng and Prusoff (Cheng, Y-C. and Prusoff, W. H., Biochem.Pharmacol., 1973, 22, 3099-3108).

The target in a further assay is T2, alpha1A adrenoceptor (Homo sapiens, UniProt P35348).
T2 construct: expressed in transfected cells; host or cells: CHO-K1
T2 sequence (P35348 1-466): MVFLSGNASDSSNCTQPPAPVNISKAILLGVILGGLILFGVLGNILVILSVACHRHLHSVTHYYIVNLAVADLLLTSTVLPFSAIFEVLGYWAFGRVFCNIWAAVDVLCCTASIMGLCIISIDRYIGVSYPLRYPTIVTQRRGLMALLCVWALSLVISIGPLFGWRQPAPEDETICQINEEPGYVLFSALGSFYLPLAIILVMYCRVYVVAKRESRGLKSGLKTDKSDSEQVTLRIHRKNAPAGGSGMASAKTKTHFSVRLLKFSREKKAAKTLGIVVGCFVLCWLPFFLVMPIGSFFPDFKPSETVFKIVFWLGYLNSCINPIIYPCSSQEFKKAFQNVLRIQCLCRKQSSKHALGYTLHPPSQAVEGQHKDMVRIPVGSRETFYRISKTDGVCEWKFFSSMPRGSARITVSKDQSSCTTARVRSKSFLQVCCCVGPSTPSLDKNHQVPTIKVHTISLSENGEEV
Nature of the assay: [3H]prazosin binding (alpha1-adrenoceptor) assay, alpha 1A. To be noted: transfected CHO-K1 cell membranes, read-out: pKi alpha 1A (converted). On the procedure:
as §1, §2, §3

In a further assay the target is T3, alpha1D adrenoceptor (Homo sapiens, UniProt P25100).
T3 construct: expressed in transfected cells; host or cells: CHO-K1
T3 sequence (P25100 1-572): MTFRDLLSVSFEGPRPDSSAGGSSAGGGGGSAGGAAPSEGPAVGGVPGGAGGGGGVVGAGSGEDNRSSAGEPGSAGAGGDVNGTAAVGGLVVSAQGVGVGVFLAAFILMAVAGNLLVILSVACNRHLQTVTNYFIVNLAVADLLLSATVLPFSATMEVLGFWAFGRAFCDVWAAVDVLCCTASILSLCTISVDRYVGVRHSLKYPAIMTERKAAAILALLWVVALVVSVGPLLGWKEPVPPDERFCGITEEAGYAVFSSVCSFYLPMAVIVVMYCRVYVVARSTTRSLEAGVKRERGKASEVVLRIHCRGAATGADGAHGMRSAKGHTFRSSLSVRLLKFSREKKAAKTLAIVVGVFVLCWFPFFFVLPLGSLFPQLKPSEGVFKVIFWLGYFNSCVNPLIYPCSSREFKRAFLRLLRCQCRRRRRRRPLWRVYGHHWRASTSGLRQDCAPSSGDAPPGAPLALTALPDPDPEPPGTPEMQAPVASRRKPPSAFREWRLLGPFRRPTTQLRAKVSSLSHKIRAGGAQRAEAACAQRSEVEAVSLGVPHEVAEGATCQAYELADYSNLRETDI
Nature of the assay: [3H]prazosin binding (alpha1-adrenoceptor) assay, alpha 1D. To be noted: transfected CHO-K1 cell membranes, read-out: pKi alpha 1D (converted). On the procedure: as §1, §2, §3

`COc1cc2nc(N3CCN(C(=O)c4ccco4)CC3)nc(N)c2cc1OC` [prazosin]: the “inhibition of HGN stimulation-induced increases in IUP and PE-induced increases in DAP” value in assay [1] was “inhibited increases in IUP and DAP in similar fashion”.
Turning to `CNCC(=O)N(C)Cc1cccc2c1CCN(c1nc(=O)c3c(C)c(OC)c(OC)cc3[nH]1)C2` [N-[2-(6,7-Dimethoxy-5-methyl-4-oxo-1,4-dihydro-quinazolin-2-yl)-1,2,3,4-tetrahydro-isoquinolin-5-ylmethyl]-N-methyl-2-methylamino-acetamide], the Ki is 1.58 nM on alpha1B adrenoceptor, 1.58 nM at alpha1A adrenoceptor and 79.4 nM on alpha1D adrenoceptor.
Regarding `COc1cc2[nH]c(N3CCC(CCn4ccnc4)CC3)nc(=O)c2c(C)c1OC` [2-[4-(2-Imidazol-1-yl-ethyl)-piperidin-1-yl]-6,7-di-methoxy-5-methyl-1H-quinazolin-4-one], the Ki on alpha1B adrenoceptor is 2.19 nM; at alpha1A adrenoceptor, 5.25 nM; on alpha1D adrenoceptor it was 87.1 nM.
In the case of `COc1cc2[nH]c(N3CCN(c4ncc[nH]4)CC3)nc(=O)c2c(OC)c1OC` [2-[4-(1H-Imidazol-2-yl)-piperazin-1-yl]-5,6,7-tri-methoxy-1H-quinazolin-4-one], the Ki at alpha1B adrenoceptor is 2.51 nM; on alpha1A adrenoceptor, 1.12 nM; at alpha1D adrenoceptor, 457 nM.
